Measured values published in patent US12214092B2, “Systems and methods for treating biological fluids” (Cerus Corporation, priority 2017, dated 2025).
Where “and” joins values, the source holds several entries; their conditions need not be identical. Identical values can stand only once. Like-named read-outs stand apart in the source and are kept apart here.

Columns and labels:
[1] = S-59 and photoproducts post-treatment in platelets in PAS/plasma, 150 μM amotosalen, liquid chromatography mass spectrometry; assay type: physicochemical
Description: As mass spec extinction coefficients for photoproducts were assumed identical as S-59 extinction coefficients, only relative difference in concentrations (μM) between samples are compared in the following Table 9b, rather than absolute concentrations.

[2] = Amotosalen concentration pre- and post-UV in platelets (plasma or PAS/plasma), 340 nm ~7.2 J/cm^2, HPLC
Protocol: A study was performed to evaluate the photoconversion of amotosalen in platelets in 10000 plasma, as well as function of the platelets over 7 days (Day 3, Day 7) following photochemical treatment using the 340 nm device of the present disclosure. Multiple donor platelet units in 10000 plasma (5 units, ˜278-391 mL) were pooled and split into 5 units of ˜285 mL each, to be used as an untreated control, or treated with amotosalen at different concentrations, with ultraviolet A illumination using the 340 nm device. Amotosalen was added to a concentration of 30, 60, 90 or 110 μM, then pre-illumination (pre-UV) samples were removed for analysis, and the remainder of the units subjected to illumination at ˜7.2 J/cm^2. Post-illumination (Post-UV) samples were then removed for post-treatment analysis.

E. coli = experiment: Amotosalen and two sequential UV light doses (UVC + UVA) treatment of E. coli in plasma, colony forming unit assay; assay type: cell-based; details: 15 μM amotosalen, titer pre-UV 6.57; for Titer Post-Second: ~3 J/cm^2 each
Protocol: Additionally, any two or more wavelengths of narrow bandwidth light are evaluated in combination, such as for example, photochemical treatment of a biological fluid using amotosalen and ultraviolet light of a first peak wavelength and ultraviolet light of a second peak wavelength, sequentially or concurrently. More specifically, in one example pathogen inactivation of E. coli (Gram negative) and S. epidermidis (Gram positive) bacteria was evaluated using amotosalen and the device with LEDs of wavelengths described in Example 8. […] The spiked plasma units were divided into control (no amotosalen+UV light) and treatment (with amotosalen) conditions, with amotosalen used at 15 μM concentration. The units were aliquoted into six-well plates (5 mL/well) for illumination. Pre-illumination samples were taken and control bacterial titers determined using standard colony forming unit assay. […] Data for pre-illumination titers, post-first illumination titer, post-second illumination titer, and post-treatment (after second illumination) residual amotosalen (S-59) are shown in the following Tables 40-41.

feline calicivirus (FCV) [3] = details: previously reported (Irsch et al. 2011), 150 μM S-59 with broad spectrum UVA; cited from earlier work
[4] = Residual amotosalen in whole-blood derived plasma, 50 μM, ~6.4 J/cm^2, HPLC; assay type: physicochemical
Description: This pool and split format was repeated four times to generate four replicates.

feline calicivirus (FCV) [5] = experiment: Photochemical inactivation of FCV in platelets (35% plasma/65% PAS) with amotosalen and 340 nm UVA, plaque assay; assay type: cell-based
[6] = S-59 photoconversion in apheresis platelets in 100% plasma, 15 μM S-59, HPLC; assay type: physicochemical
Description: Additional units were illuminated with the INT-100 device at ˜3.6 J/cm^2 for comparison or maintained as an untreated control.

[7] = test system: vesicular stomatitis virus (VSV); assay type: cell-based; details: for Log Inact. / Post-Txt Titer / Pre-Txt Titer: 30 μM, listed as amotosalen; for Log inactivation / Post-treatment titer / Pre-treatment titer: 150 μM

Compound: Cc1oc2c(C)c3oc(=O)cc(C)c3cc2c1COCCN [S-59, 3-(2-aminoethoxymethyl)-2,5,9-trimethylfuro[3,2-g]chromen-7-one]
- Post-illumination concentration (relative, LC-MS) ([1]; 340 nm, ~3.6 J/cm^2): 21.3 µM
- Post-illumination concentration (relative, LC-MS) ([1]; 340 nm, ~7.2 J/cm^2): 4.8 µM
- Post-illumination concentration (relative, LC-MS) ([1]; 340 nm, ~10.8 J/cm^2): 2.5 µM
- Post-illumination concentration (relative, LC-MS) ([1]; INT100, ~3.6 J/cm^2): 37.0 µM
- Post-illumination concentration (relative, LC-MS) ([1]; INT100, ~7.2 J/cm^2): 11.6 µM
- Post-illumination concentration (relative, LC-MS) ([1]; INT100, ~10.8 J/cm^2): 12.0 µM
- Amotosalen concentration ([2]; 30 μM, PAS/Plasma, Post-UV): 0.3 µM
- Amotosalen concentration ([2]; 30 μM, PAS/Plasma, Pre-UV): 30.5 µM
- Amotosalen concentration ([2]; 30 μM, Plasma, Post-UV): 1.1 µM
- Amotosalen concentration ([2]; 30 μM, Plasma, Pre-UV): 32.7 µM
- Amotosalen concentration ([2]; 60 μM, PAS/Plasma, Post-UV): 0.7 µM
- Amotosalen concentration ([2]; 60 μM, PAS/Plasma, Pre-UV): 61.2 µM
- Amotosalen concentration ([2]; 60 μM, Plasma, Post-UV): 2.3 µM
- Amotosalen concentration ([2]; 60 μM, Plasma, Pre-UV): 62.0 µM
- Amotosalen concentration ([2]; 90 μM, PAS/Plasma, Post-UV): 1.0 µM
- Amotosalen concentration ([2]; 90 μM, PAS/Plasma, Pre-UV): 90.5 µM
- Amotosalen concentration ([2]; 90 μM, Plasma, Post-UV): 4.0 µM
- Amotosalen concentration ([2]; 90 μM, Plasma, Pre-UV): 89.7 µM
- Amotosalen concentration ([2]; 110 μM, PAS/Plasma, Post-UV): 1.2 µM
- Amotosalen concentration ([2]; 110 μM, PAS/Plasma, Pre-UV): 120.7 µM
- Amotosalen concentration ([2]; 110 μM, Plasma, Post-UV): 5.5 µM
- Amotosalen concentration ([2]; 110 μM, Plasma, Pre-UV): 105.8 µM
- Titer Post-Second (E. coli; UV 1 265 nm then UV 2 325 nm): <−0.11
- Titer Post-Second (E. coli; UV 1 265 nm then UV 2 340 nm): <−0.11
- Titer Post-Second (E. coli; UV 1 265 nm then UV 2 365 nm): <−0.11
- Titer Post-First (E. coli; UV 1 265 nm ~3 J/cm^2 (then 325 nm)): 3.58
- Titer Post-First (E. coli; UV 1 265 nm ~3 J/cm^2 (then 340 nm)): 3.86
- Titer Post-First (E. coli; UV 1 265 nm ~3 J/cm^2 (then 365 nm)): 2.95
- Titer Post-Second (E. coli; UV 1 280 nm then UV 2 325 nm): <−0.11
- Titer Post-Second (E. coli; UV 1 280 nm then UV 2 340 nm): <−0.11
- Titer Post-Second (E. coli; UV 1 280 nm then UV 2 365 nm): <−0.11
- Titer Post-First (E. coli; UV 1 280 nm ~3 J/cm^2 (then 325 nm)): 3.66
- Titer Post-First (E. coli; UV 1 280 nm ~3 J/cm^2 (then 340 nm)): 4.15
- Titer Post-First (E. coli; UV 1 280 nm ~3 J/cm^2 (then 365 nm)): 4.11
- Titer Post-Second (E. coli; UV 1 325 nm then UV 2 265 nm): <−0.11
- Titer Post-Second (E. coli; UV 1 325 nm then UV 2 280 nm): <−0.11
- Titer Post-First (E. coli; UV 1 325 nm ~3 J/cm^2 (then 265 nm)): <−0.11
- Titer Post-First (E. coli; UV 1 325 nm ~3 J/cm^2 (then 280 nm)): <−0.11
- Titer Post-Second (E. coli; UV 1 340 nm then UV 2 265 nm): <−0.11
- Titer Post-Second (E. coli; UV 1 340 nm then UV 2 280 nm): <−0.11
- Titer Post-First (E. coli; UV 1 340 nm ~3 J/cm^2 (then 265 nm)): <−0.11
- Titer Post-First (E. coli; UV 1 340 nm ~3 J/cm^2 (then 280 nm)): <−0.11
- Titer Post-Second (E. coli; UV 1 365 nm then UV 2 265 nm): <−0.11
- Titer Post-Second (E. coli; UV 1 365 nm then UV 2 280 nm): <−0.11
- Titer Post-First (E. coli; UV 1 365 nm ~3 J/cm^2 (then 265 nm)): <−0.11
- Titer Post-First (E. coli; UV 1 365 nm ~3 J/cm^2 (then 280 nm)): <−0.11
- reduction in titer of caliciviruses (FCV) (feline calicivirus (FCV) [3]): 1.7-2.4 log 10
- residual amotosalen concentration ([4]; 340 nm device): 4.65 µM
- residual amotosalen concentration ([4]; INT-100 device): 17.06 µM
- Log inactivation (feline calicivirus (FCV) [5]; 15 μM, 4 hr incubation, 340 nm ~3 J/cm^2): 2.7 log PFU/mL
- Log inactivation (feline calicivirus (FCV) [5]; 15 μM, 8 hr incubation, 340 nm ~3 J/cm^2): 4.2 log PFU/mL
- Log inactivation (feline calicivirus (FCV) [5]; 15 μM, 8 hr, 340 nm ~3 J/cm^2 Top Only): 4.1 log PFU/mL
- Log inactivation (feline calicivirus (FCV) [5]; 15 μM, 8 hr, 340 nm ~3 J/cm^2 Top/Bottom): 3.9 log PFU/mL
- Log inactivation (feline calicivirus (FCV) [5]; 15 μM, 24 hr incubation, 340 nm ~3 J/cm^2): >5.6 log PFU/mL
- Log inactivation (feline calicivirus (FCV) [5]; 15 μM, 24 hr, 340 nm ~3 J/cm^2 Top Only): >6.3 log PFU/mL
- Log inactivation (feline calicivirus (FCV) [5]; 15 μM, 24 hr, 340 nm ~3 J/cm^2 Top/Bottom): >6.3 log PFU/mL
- Log inactivation (feline calicivirus (FCV) [5]; 30 μM, 4 hr incubation, 340 nm ~3 J/cm^2): 4.0 log PFU/mL
- Log inactivation (feline calicivirus (FCV) [5]; 30 μM, 8 hr incubation, 340 nm ~3 J/cm^2): >5.6 log PFU/mL
- Log inactivation (feline calicivirus (FCV) [5]; 30 μM, 8 hr, 340 nm ~3 J/cm^2 Top Only): >6.3 log PFU/mL
- Log inactivation (feline calicivirus (FCV) [5]; 30 μM, 8 hr, 340 nm ~3 J/cm^2 Top/Bottom): 6.3 log PFU/mL
- Log inactivation (feline calicivirus (FCV) [5]; 30 μM, 24 hr incubation, 340 nm ~3 J/cm^2): >5.6 log PFU/mL
- Log inactivation (feline calicivirus (FCV) [5]; 30 μM, 24 hr, 340 nm ~3 J/cm^2 Top Only): >6.3 log PFU/mL
- Log inactivation (feline calicivirus (FCV) [5]; 30 μM, 24 hr, 340 nm ~3 J/cm^2 Top/Bottom): >6.3 log PFU/mL
- Log inactivation (feline calicivirus (FCV) [5]; 90 μM, 4 hr incubation, 340 nm ~3 J/cm^2): >5.6 log PFU/mL
- Log inactivation (feline calicivirus (FCV) [5]; 90 μM, 8 hr incubation, 340 nm ~3 J/cm^2): >5.6 log PFU/mL
- Log inactivation (feline calicivirus (FCV) [5]; 90 μM, 24 hr incubation, 340 nm ~3 J/cm^2): >5.6 log PFU/mL
- Log inactivation (feline calicivirus (FCV) [5]; 150 μM, 0 hr incubation, 340 nm, more than twice ~3 J/cm^2): 2.5 log PFU/mL
- Log inactivation (feline calicivirus (FCV) [5]; 150 μM, 0 hr, 340 nm Top Only (1-sided)): 4.6 log PFU/mL
- Log inactivation (feline calicivirus (FCV) [5]; 150 μM, 0 hr, 340 nm Top/Bottom (2-sided)): 3.5 log PFU/mL
- S-59 concentration post-illumination ([6]; 340 nm LED 1× (~3.6 J/cm^2), <LOQ): 0.86 µM
- S-59 concentration post-illumination ([6]; 340 nm LED 2× (~7.2 J/cm^2), <LOQ): 0.19 µM
- S-59 concentration post-illumination ([6]; 340 nm LED 3× (~10.8 J/cm^2), <LOQ): 0.00 µM
- S-59 concentration post-illumination ([6]; INT-100, ~3.6 J/cm^2): 4.11 µM
- Log Inact. ([7]; 220 mL, 340 nm LED ~3.0 J/cm^2): 2.28 log and 2.39 log
- Post-Txt Titer ([7]; 220 mL, 340 nm LED ~3.0 J/cm^2): 4.32 log10 and 2.85 log10
- Log Inact. ([7]; 220 mL, INT 100 ~3.0 J/cm^2): 2.02 log and 1.97 log
- Post-Txt Titer ([7]; 220 mL, INT 100 ~3.0 J/cm^2): 4.58 log10 and 3.27 log10
- Pre-Txt Titer ([7]; 220 mL): 6.60 log10 and 5.24 log10
- Log Inact. ([7]; 350 mL, 340 nm LED ~3.0 J/cm^2): 2.34 log and 2.21 log
- Post-Txt Titer ([7]; 350 mL, 340 nm LED ~3.0 J/cm^2): 4.26 log10 and 3.03 log10
- Log Inact. ([7]; 350 mL, INT 100 ~3.0 J/cm^2): 1.76 log and 1.66 log
- Post-Txt Titer ([7]; 350 mL, INT 100 ~3.0 J/cm^2): 4.93 log10 and 3.58 log10
- Pre-Txt Titer ([7]; 350 mL): 6.60 log10 and 5.24 log10
- Log inactivation ([7]; 340 nm LED ~6.4 J/cm^2): 4.6 log
- Post-treatment titer ([7]; 340 nm LED ~6.4 J/cm^2): 1.7 log PFU
- Pre-treatment titer ([7]; 340 nm unit): 6.3 log PFU
- Log inactivation ([7]; 365 nm LED ~6.4 J/cm^2): 3.0 log
- Post-treatment titer ([7]; 365 nm LED ~6.4 J/cm^2): 3.3 log PFU
- Pre-treatment titer ([7]; 365 nm unit): 6.3 log PFU
- Pre-treatment titer ([7]; INT-100 unit): 6.3 log PFU
- Log inactivation ([7]; INT-100 ~6.4 J/cm^2): 3.4 log
- Post-treatment titer ([7]; INT-100 ~6.4 J/cm^2): 2.9 log PFU
